# According to patent publication US20230140983A1, “PYRIDAZINE DERIVATIVES FOR MODULATING NUCLEIC ACID SPLICING” (REMIX THERAPEUTICS INC., priority 2020, published 2023):
# Counter-ions that a name gives are not always drawn. Like-named read-outs stand apart in the source and are kept apart here.
# Experiments:
# Assay type in all cases: cell-based
# Target C = experiment: Gene panel canonical junction qPCR assay, Target C CJ mRNA; details: Table 9, CJ mRNA decrease, read-out: Target C IC50 (decrease in CJ mRNA levels)
# Method: (§1) To set up 10 uL RT-qPCR reactions, cell lysates were transferred to 384-well qPCR plates containing the master mix according to the table below. The plates were sealed, gently vortexed, and spun down before the run. The volumes were adjusted accordingly in some instances where the reaction was carried in 20 uL. The table below summarizes the components of the RT-qPCR reactions:
# (§2) The RT-qPCR reaction was performed using a QuantStudio (ThermoFisher) under the following fast cycling conditions. All samples and standards were analyzed at least in duplicate. In some instances, bulk room temperature (RT) step of 5-10 minutes was completed for all plates before proceeding with qPCR. The table below summarizes the PCR cycle:
# (§3) The data analysis was performed by first determining the ΔCt vs the housekeeper gene. This ΔCt was then normalized against the DMSO control (ΔΔCt) and converted to RQ (relative quantification) using the 2^(−ΔΔCt) equation. The RQ were then converted to a percentage response by arbitrarily setting an assay window of 3.5 ΔCt for HTT-CJ and an assay window of 9 ΔCt for HTT-AJ. […] The percentage response was then fitted to the 4 parametric logistic equation to evaluate the concentration dependence of compound treatment. The increase in AJ mRNA is reported as AC50 (compound concentration having 50% response in AJ increase) while the decrease in CJ mRNA levels is reported as IC50 (compound concentration having 50% response in CJ decrease).
# (§4) Additional studies were carried out for a larger panel of genes using the protocol provided above. The junction between flanking upstream and downstream exons was used to design canonical junction qPCR assays. At least one of the forward primer, reverse primer or the CY5-labeled 5′ nuclease probe (with 3′ quencher such as ZEN/Iowa Black FQ) was designed to overlap with the exon junction to capture the CJ mRNA transcript. BLAST was used to confirm the specificity of the probeset and parameters such as melting temperature, GC content, amplicon size, and primer dimer formation are considered during their design. Data for the decrease in CJ mRNA levels for three exemplary genes (HTT, SMN2, and Target C) analyzed in this panel are reported as IC50 (compound concentration having 50% response in CJ decrease).
# SMN2 = experiment: Gene panel canonical junction qPCR assay, SMN2 CJ mRNA; details: Table 9, CJ mRNA decrease, read-out: SMN2 IC50 (decrease in CJ mRNA levels)
# Method: as §1, §2, §3, §4
# HTT [1] = experiment: Splicing assay (RT-qPCR on cell lysates) monitoring HTT splice variants: AJ and CJ mRNA; details: concentration having 50% response
# Method: Example 69: Exemplary Splicing Assay for Monitoring Expression Levels of Splice Variants
# as §1, §2, §3
# HTT [2] = experiment: Gene panel canonical junction qPCR assay, HTT CJ mRNA; details: Table 9, CJ mRNA decrease, read-out: HTT IC50 (decrease in CJ mRNA levels)
# Method: as §1, §2, §3, §4
# [3] = Table 8, decrease in CJ mRNA, read-out: HTT CJ AC50
# [4] = Table 8, increase in AJ mRNA, read-out: HTT AJ AC50
# [5] = Table 7, decrease in CJ mRNA, read-out: HTT CJ AC50
# [6] = Table 7, increase in AJ mRNA, read-out: HTT AJ AC50
Compound,IC50 (Target C) [µM],IC50 (SMN2) [µM],AC50 (HTT [1]; [3]) [µM],AC50 (HTT [1]; [4]) [µM],IC50 (HTT [2]) [µM],AC50 (HTT [1]; [5]) [µM],AC50 (HTT [1]; [6]) [µM]
[2H]C([2H])([2H])N(c1ccc(-c2ccc(-c3cn[nH]c3)c3ncsc23)nn1)[C@@H]1C[C@H]2CCC[C@@H](C1)N2 [Compound 227],< 0.1,< 0.1,< 0.1,< 0.1,< 0.1,–,–
"c1nc2c(-c3cn[nH]c3)ccc(-c3ccc(NC4CCNCC4)nn3)c2s1 [Compound 214, N-(piperidin-4-yl)-6-[4-(1H-pyrazol-4-yl)-1,3-benzothiazol-7-yl]pyridazin-3-amine]",> 10,0.1 to 1,> 10,1 to 10,> 10,–,–
CN(c1ccc(-c2ccc(-c3ccc(=O)[nH]c3)c3scnc23)nn1)C1CC(C)(C)NC(C)(C)C1 [Compound 180],0.1 to 1,0.1 to 1,0.1 to 1,0.1 to 1,0.1 to 1,–,–
c1n[nH]cc1-c1ccc(-c2ccc(O[C@@H]3C[C@H]4CCC[C@@H](C3)N4)nn2)c2[nH]ncc12 [Compound 219],0.1 to 1,< 0.1,0.1 to 1,0.1 to 1,0.1 to 1,–,–
"[2H]C([2H])([2H])N(c1ccc(-c2ccc(-c3cn[nH]c3)c3ncsc23)nn1)[C@@H]1C[C@H]2CC[C@@H](C1)N2 [Compound 210, (exo-)-N-(D3)methyl-N-[6-[4-(1H-pyrazol-4-yl)-1,3-benzothiazol-7-yl]pyridazin-3-yl]-8-azabicyclo [3.2.1]octan-3-amine]",< 0.1,< 0.1,< 0.1,< 0.1,< 0.1,–,–
CC1(C)CC(Nc2ccc(-c3ccc(-c4cn[nH]c4)c4ncsc34)nn2)CC(C)(C)N1 [Compound 186],0.1 to 1,< 0.1,< 0.1,< 0.1,< 0.1,< 0.5,< 0.5
c1nc2c(-c3cn[nH]c3)ccc(-c3ccc(O[C@@H]4C[C@H]5CCC[C@@H](C4)N5)nn3)c2s1 [Compound 209],> 10,0.1 to 1,> 10,> 10,> 10,–,–
"c1nc2c(-c3cn[nH]c3)ccc(-c3ccc(N[C@@H]4C[C@H]5CC[C@@H](C4)N5)nn3)c2s1 [Compound 202, (exo-)-N-[6-[4-(1H-pyrazol-4-yl)-1,3-benzothiazol-7-yl]pyridazin-3-yl]-8-azabicyclo[3.2.1]octan-3-amine]",0.1 to 1,< 0.1,< 0.1,< 0.1,< 0.1,–,–
CN(c1ccc(-c2ccc(-c3cnc(=O)[nH]c3)c3scnc23)nn1)C1CC(C)(C)NC(C)(C)C1 [Compound 179],0.1 to 1,0.1 to 1,0.1 to 1,0.1 to 1,0.1 to 1,–,–
CC1(C)CC(Oc2ccc(-c3ccc(-c4cn[nH]c4)c4cn[nH]c34)nn2)CCN1 (stereo not shown) [Compound 220],> 10,0.1 to 1,1 to 10,> 10,1 to 10,–,–
c1nc2c(-c3cn[nH]c3)ccc(-c3ccc(N4CCC5(CC4)CNC5)nn3)c2s1 [Compound 188],> 10,> 10,> 10,> 10,> 10,> 5,> 5
c1nc2c(-c3cn[nH]c3)ccc(-c3ccc(N4CCC5(CCNCC5)C4)nn3)c2s1 [Compound 190],> 10,> 10,> 10,> 10,> 10,–,–
"CN1C[C@@H]2CN(c3ccc(-c4ccc(-c5cn[nH]c5)c5ncsc45)nn3)C[C@@H]2C1 [Compound 198, 7-{6-[(exo)-5-methyl-hexahydropyrrolo[3,4-c]pyrrol-2-yl]pyridazin-3-yl}-4-(1H-pyrazol-4-yl)-1,3-benzothiazole hydrochloride]",> 10,0.1 to 1,> 10,> 10,> 10,–,–
"c1n[nH]cc1-c1ccc(-c2ccc(NC3CCNCC3)nn2)c2[nH]ncc12 [Compound 263, N-(piperidin-4-yl)-6-[4-(1H-pyrazol-4-yl)-1H-indazol-7-yl]pyridazin-3-amine hydrogen chloride]",–,–,> 10,> 10,–,–,–
"c1nc2c(-c3cn[nH]c3)ccc(-c3ccc(N4CCC5(CCN5)C4)nn3)c2s1 (stereo not shown) [Compound 265, 7-(6-{1,6-diazaspiro[3.4]octan-6-yl}pyridazin-3-yl)-4-(1H-pyrazol-4-yl)-1,3-benzothiazole]",–,–,> 10,> 10,–,–,–
"CN(c1ccc(-c2ccc(-c3cn[nH]c3)c3nn[nH]c23)nn1)[C@@H]1C[C@H]2CC[C@@H](C1)N2 [Compound 118, (1R,3S,5S)—N-methyl-N-[6-[7-(1H-pyrazol-4-yl)-3H-1,2,3-benzotriazol-4-yl]pyridazin-3-yl]-8-azabicyclo[3.2.1]octan-3-amine]",–,–,–,–,–,0.5 to 5,0.5 to 5
"CN(c1ccc(-c2ccc(-n3cccn3)c3cn[nH]c23)nn1)C1CC(C)(C)NC(C)(C)C1 [Compound 150, N-methyl-6-[4-(pyrazol-1-yl)-1H-indazol-7-yl]-N-(2,2,6,6-tetramethylpiperidin-4-yl)pyridazin-3-amine]",–,–,–,–,–,0.5 to 5,0.5 to 5
C[C@@H]1C[C@H](N(C)c2ccc(-c3ccc(-c4cn[nH]c4)c4nn[nH]c34)nn2)CCN1 [Compound 115],–,–,–,–,–,–,> 5
c1n[nH]cc1-c1ccc(-c2ccc(NC3CNC3)nn2)c2[nH]ncc12 [Compound 237],–,–,> 10,> 10,–,–,–
"CN(c1ccc(-c2ccc(-n3cccn3)c3cn[nH]c23)nn1)[C@@H]1C[C@H]2CC[C@@H](C1)N2 [Compound 105, (1R,3R,5S)—N-methyl-N-[6-[4-(pyrazol-1-yl)-1H-indazol-7-yl]pyridazin-3-yl]-8-azabicyclo[3.2.1]octan-3-amine]",–,–,–,–,–,< 0.5,< 0.5
c1n[nH]cc1-c1ccc(-c2ccc(N3CCC4(CCNCC4)C3)nn2)c2[nH]ncc12 [Compound 239],–,–,> 10,> 10,–,–,–
C[C@H]1C[C@H](N(C)c2ccc(-c3ccc(-c4cn[nH]c4)c4cc[nH]c34)nn2)CCN1 [Compound 157],–,–,–,–,–,–,> 5
c1n[nH]cc1-c1ccc(-c2ccc(N3CCC4(CCNC4)CC3)nn2)c2[nH]ncc12 [Compound 240],–,–,> 10,> 10,–,–,–
CN(c1ccc(-c2ccc(-c3cnn(C)c(=O)c3)c3scnc23)nn1)C1CC(C)(C)NC(C)(C)C1 [Compound 211],0.1 to 1,0.1 to 1,–,–,0.1 to 1,–,–
c1n[nH]cc1-c1ccc(-c2ccc(N3CCC4(CCCNC4)C3)nn2)c2[nH]ncc12 (stereo not shown) [Compound 252],–,–,> 10,> 10,–,–,–
"CN(c1ccc(-c2ccc(-n3cccn3)c3nn[nH]c23)nn1)[C@@H]1C[C@H]2CC[C@@H](C1)N2 [Compound 119, (1R,3S,5S)—N-methyl-N-[6-[7-(pyrazol-1-yl)-3H-1,2,3-benzotriazol-4-yl]pyridazin-3-yl]-8-azabicyclo[3.2.1]octan-3-amine]",–,–,–,–,–,0.5 to 5,> 5
"CN(c1ccc(-c2ccc(-c3cn[nH]c3)c3ncsc23)nn1)C1CC(C)(C)NC(C)(C)C1 [Compound 132, N-methyl-6-[4-(1H-pyrazol-4-yl)-1,3-benzothiazol-7-yl]-N-(2,2,6,6-tetramethylpiperidin-4-yl)pyridazin-3-amine]",–,–,–,–,–,< 0.5,< 0.5
"CC1C[C@@H](N(C)c2ccc(-c3ccc(-n4cccn4)c4cc[nH]c34)nn2)CCN1 (stereo in doubt) [Compound 111, N-methyl-N-[(2R,4S)-2-methylpiperidin-4-yl]-6-[4-(pyrazol-1-yl)-1H-indol-7-yl]pyridazin-3-amine]",–,–,–,–,–,> 5,> 5
"C[C@H]1C[C@@H](N(C)c2ccc(-c3ccc(-c4cn[nH]c4)c4cc[nH]c34)nn2)CCN1 [Compound 108, N-methyl-N-[(2S,4S)-2-methylpiperidin-4-yl]-6-[4-(1H-pyrazol-4-yl)-1H-indol-7-yl]pyridazin-3-amine]",–,–,–,–,–,> 5,> 5
